Assay results: the NIST ThermoML archive (doi:10.1021/je700294p)
Numbers after ± are expanded uncertainties.

Tests used:
[1] = xn = mol fraction of the nth substance listed; conditions: 101 kPa, Liquid
[2] = excess molar enthalpy (molar enthalpy of mixing); xn = mol fraction of the nth substance listed; conditions: 101 kPa, Liquid
[3] = 101.33 kPa, Liquid
[4] = refractive index (Na D-line) (dimensionless); conditions: 101.33 kPa, Liquid, Standard Abbe refractometry

CCCC[n+]1cccc(C)c1.F[B-](F)(F)F [1-butyl-3-methylpyridinium tetrafluoroborate] + CCCO
Conditions	excess molar enthalpy [kJ/mol]	mass density [kg/m3]
[1], 298.15 K, x1 = 0.016	–	816.7 ± 0.7
[1], 298.15 K, x1 = 0.4528	–	1066.5 ± 0.6
[1], 298.15 K, x1 = 0.494	–	1079.3 ± 0.7
[1], 298.15 K, x1 = 0.5262	–	1088.6 ± 0.7
[1], 298.15 K, x1 = 0.5959	–	1106.9 ± 0.7
[1], 298.15 K, x1 = 0.6934	–	1129.5 ± 0.8
[1], 298.15 K, x1 = 0.7543	–	1141.9 ± 0.8
[1], 298.15 K, x1 = 0.7993	–	1150.4 ± 0.8
[1], 298.15 K, x1 = 0.8582	–	1160.4 ± 0.8
[1], 298.15 K, x1 = 0.8962	–	1166.6 ± 0.9
[1], 318.15 K, x1 = 0.0143	–	798.4 ± 0.8
[1], 318.15 K, x1 = 0.0249	–	808.8 ± 0.8
[1], 318.15 K, x1 = 0.0477	–	830.6 ± 0.8
[1], 318.15 K, x1 = 0.1003	–	873.4 ± 0.7
[1], 318.15 K, x1 = 0.1222	–	890.6 ± 0.7
[1], 318.15 K, x1 = 0.1492	–	909.3 ± 0.6
[1], 318.15 K, x1 = 0.2	–	940.8 ± 0.6
[1], 318.15 K, x1 = 0.2295	–	957.5 ± 0.5
[1], 318.15 K, x1 = 0.3112	–	997.8 ± 0.5
[1], 318.15 K, x1 = 0.4002	–	1033.6 ± 0.5
[1], 318.15 K, x1 = 0.4285	–	1043.6 ± 0.6
[1], 318.15 K, x1 = 0.4635	–	1055.3 ± 0.6
[1], 318.15 K, x1 = 0.5638	–	1084.7 ± 0.7
[1], 318.15 K, x1 = 0.6072	–	1095.8 ± 0.7
[1], 318.15 K, x1 = 0.6405	–	1103.5 ± 0.8
[1], 318.15 K, x1 = 0.7096	–	1118.9 ± 0.8
[1], 318.15 K, x1 = 0.8001	–	1136.9 ± 0.9
[1], 318.15 K, x1 = 0.8522	–	1145.7 ± 0.9
[1], 318.15 K, x1 = 0.9028	–	1154.2 ± 0.9
[2], 298.15 K, x1 = 0.0139	0.163 ± 0.006	–
[2], 298.15 K, x1 = 0.0242	0.236 ± 0.008	–
[2], 298.15 K, x1 = 0.0278	0.285 ± 0.008	–
[2], 298.15 K, x1 = 0.3397	2.34 ± 0.049	–
[2], 298.15 K, x1 = 0.3707	2.35 ± 0.049	–
[2], 298.15 K, x1 = 0.4045	2.31 ± 0.048	–
[2], 298.15 K, x1 = 0.4278	2.27 ± 0.048	–
[2], 298.15 K, x1 = 0.4642	2.22 ± 0.046	–
[2], 298.15 K, x1 = 0.498	2.12 ± 0.044	–
[2], 298.15 K, x1 = 0.5458	1.97 ± 0.041	–
[2], 298.15 K, x1 = 0.5983	1.74 ± 0.037	–
[2], 298.15 K, x1 = 0.6621	1.52 ± 0.032	–
[2], 298.15 K, x1 = 0.7278	1.25 ± 0.027	–
[2], 298.15 K, x1 = 0.7939	0.959 ± 0.021	–
[2], 298.15 K, x1 = 0.8653	0.685 ± 0.016	–
[2], 298.15 K, x1 = 0.9335	0.407 ± 0.01	–
[2], 318.15 K, x1 = 0.0232	0.417 ± 0.011	–
[2], 318.15 K, x1 = 0.052	0.776 ± 0.018	–
[2], 318.15 K, x1 = 0.0852	1.16 ± 0.025	–
[2], 318.15 K, x1 = 0.1233	1.55 ± 0.033	–
[2], 318.15 K, x1 = 0.1608	1.92 ± 0.041	–
[2], 318.15 K, x1 = 0.2011	2.23 ± 0.048	–
[2], 318.15 K, x1 = 0.2044	2.31 ± 0.049	–
[2], 318.15 K, x1 = 0.2311	2.44 ± 0.051	–
[2], 318.15 K, x1 = 0.2591	2.56 ± 0.053	–
[2], 318.15 K, x1 = 0.2896	2.65 ± 0.055	–
[2], 318.15 K, x1 = 0.3223	2.73 ± 0.057	–
[2], 318.15 K, x1 = 0.3585	2.77 ± 0.057	–
[2], 318.15 K, x1 = 0.3982	2.78 ± 0.058	–
[2], 318.15 K, x1 = 0.4404	2.74 ± 0.057	–
[2], 318.15 K, x1 = 0.4891	2.65 ± 0.055	–
[2], 318.15 K, x1 = 0.5441	2.5 ± 0.052	–
[2], 318.15 K, x1 = 0.6073	2.25 ± 0.047	–
[2], 318.15 K, x1 = 0.674	1.91 ± 0.04	–
[2], 318.15 K, x1 = 0.7504	1.51 ± 0.032	–
[2], 318.15 K, x1 = 0.8323	1.05 ± 0.023	–
[2], 318.15 K, x1 = 0.9131	0.598 ± 0.014	–

CCCC[n+]1cccc(C)c1.F[B-](F)(F)F [1-butyl-3-methylpyridinium tetrafluoroborate]
Conditions	mass density, [3] [kg/m3]	refractive index, [4]
298.15 K	1182.19 ± 0.89	1.4473 ± 0.0005
318.15 K	1168.31 ± 0.86	1.4422 ± 0.0005

CCCC[n+]1cccc(C)c1.F[B-](F)(F)F [1-butyl-3-methylpyridinium tetrafluoroborate] + CO
Conditions	excess molar enthalpy [kJ/mol]	mass density [kg/m3]
[1], 298.15 K, x1 = 0.0493	–	873.4 ± 0.8
[1], 298.15 K, x1 = 0.0629	–	893.1 ± 0.8
[1], 298.15 K, x1 = 0.0986	–	934.4 ± 0.7
[1], 298.15 K, x1 = 0.1499	–	979.6 ± 0.5
[1], 298.15 K, x1 = 0.2007	–	1014.7 ± 0.6
[1], 298.15 K, x1 = 0.2956	–	1061.6 ± 0.6
[1], 298.15 K, x1 = 0.4052	–	1098.2 ± 0.7
[1], 298.15 K, x1 = 0.5128	–	1122.8 ± 0.8
[1], 298.15 K, x1 = 0.6009	–	1138.7 ± 0.8
[1], 298.15 K, x1 = 0.6913	–	1151.7 ± 0.8
[1], 298.15 K, x1 = 0.7611	–	1159.7 ± 0.8
[1], 318.15 K, x1 = 0.0557	–	865.7 ± 0.8
[1], 318.15 K, x1 = 0.1052	–	924.3 ± 0.7
[1], 318.15 K, x1 = 0.1493	–	964 ± 0.6
[1], 318.15 K, x1 = 0.2479	–	1025.1 ± 0.5
[1], 318.15 K, x1 = 0.3016	–	1048.4 ± 0.6
[1], 318.15 K, x1 = 0.3944	–	1079.5 ± 0.7
[1], 318.15 K, x1 = 0.497	–	1104.7 ± 0.8
[1], 318.15 K, x1 = 0.5868	–	1121.6 ± 0.8
[1], 318.15 K, x1 = 0.7088	–	1139.8 ± 0.9
[1], 318.15 K, x1 = 0.855	–	1156.2 ± 0.9
[1], 318.15 K, x1 = 0.9465	–	1164.4 ± 1
[2], 298.15 K, x1 = 0.0057	0.109 ± 0.007	–
[2], 298.15 K, x1 = 0.0149	0.228 ± 0.008	–
[2], 298.15 K, x1 = 0.0279	0.386 ± 0.011	–
[2], 298.15 K, x1 = 0.044	0.546 ± 0.014	–
[2], 298.15 K, x1 = 0.0635	0.699 ± 0.016	–
[2], 298.15 K, x1 = 0.0842	0.846 ± 0.019	–
[2], 298.15 K, x1 = 0.1071	0.991 ± 0.022	–
[2], 298.15 K, x1 = 0.1312	1.13 ± 0.025	–
[2], 298.15 K, x1 = 0.1585	1.29 ± 0.028	–
[2], 298.15 K, x1 = 0.1851	1.39 ± 0.03	–
[2], 298.15 K, x1 = 0.2119	1.5 ± 0.032	–
[2], 298.15 K, x1 = 0.2357	1.56 ± 0.033	–
[2], 298.15 K, x1 = 0.2672	1.6 ± 0.034	–
[2], 298.15 K, x1 = 0.3069	1.62 ± 0.034	–
[2], 298.15 K, x1 = 0.3541	1.6 ± 0.034	–
[2], 298.15 K, x1 = 0.41	1.58 ± 0.034	–
[2], 298.15 K, x1 = 0.4816	1.51 ± 0.032	–
[2], 298.15 K, x1 = 0.5621	1.38 ± 0.03	–
[2], 298.15 K, x1 = 0.7167	1.08 ± 0.024	–
[2], 298.15 K, x1 = 0.7441	0.948 ± 0.021	–
[2], 298.15 K, x1 = 0.8438	0.662 ± 0.015	–
[2], 298.15 K, x1 = 0.9196	0.394 ± 0.01	–
[2], 298.15 K, x1 = 0.9707	0.174 ± 0.006	–
[2], 318.15 K, x1 = 0.0159	0.246 ± 0.009	–
[2], 318.15 K, x1 = 0.0352	0.506 ± 0.013	–
[2], 318.15 K, x1 = 0.0581	0.723 ± 0.017	–
[2], 318.15 K, x1 = 0.0823	0.939 ± 0.021	–
[2], 318.15 K, x1 = 0.1098	1.18 ± 0.026	–
[2], 318.15 K, x1 = 0.1382	1.41 ± 0.03	–
[2], 318.15 K, x1 = 0.1674	1.63 ± 0.035	–
[2], 318.15 K, x1 = 0.197	1.8 ± 0.038	–
[2], 318.15 K, x1 = 0.2147	1.93 ± 0.041	–
[2], 318.15 K, x1 = 0.2317	2.04 ± 0.043	–
[2], 318.15 K, x1 = 0.2641	2.14 ± 0.045	–
[2], 318.15 K, x1 = 0.2984	2.23 ± 0.047	–
[2], 318.15 K, x1 = 0.3343	2.28 ± 0.048	–
[2], 318.15 K, x1 = 0.3787	2.29 ± 0.048	–
[2], 318.15 K, x1 = 0.4391	2.25 ± 0.047	–
[2], 318.15 K, x1 = 0.5504	2 ± 0.042	–
[2], 318.15 K, x1 = 0.6911	1.46 ± 0.031	–
[2], 318.15 K, x1 = 0.8526	0.801 ± 0.018	–

CO [methanol]
[3], Vibrating tube method
Conditions	mass density [kg/m3]
298.15 K	786.44 ± 0.31
318.15 K	768.04 ± 0.31

[4]
Conditions	refractive index
298.15 K	1.3268 ± 0.0005
318.15 K	1.319 ± 0.0005

CCCO [propan-1-ol]
[3], Vibrating tube method
Conditions	mass density [kg/m3]
298.15 K	799.7 ± 0.31
318.15 K	783.16 ± 0.31

[4]
Conditions	refractive index
298.15 K	1.3831 ± 0.0005
318.15 K	1.3757 ± 0.0005

CCCCO [butan-1-ol]
[3], Vibrating tube method
Conditions	mass density [kg/m3]
298.15 K	805.95 ± 0.31
318.15 K	790.27 ± 0.31

[4]
Conditions	refractive index
298.15 K	1.3968 ± 0.0005
318.15 K	1.39 ± 0.0005

CCO [ethanol]
[3], Vibrating tube method
Conditions	mass density [kg/m3]
298.15 K	785.15 ± 0.31
318.15 K	767.57 ± 0.31

[4]
Conditions	refractive index
298.15 K	1.36 ± 0.0005
318.15 K	1.3548 ± 0.0005
